#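 Exposure lasted 48 hours, with cells grown in 96-well plates and compounds tested at five concentrations. GI50: concentration for 50% inhibition of growth. The concentration for full growth arrest is given as TGI.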
# Legend:
# Assay in all cases: DTP human tumour cell line panel, 48 h
# [1] = tested on: SK-MEL-28 melanoma
# [2] = tested on: UACC-257 melanoma
# [3] = tested on: SF-539 CNS
# [4] = tested on: NCI-H460 lung
# [5] = tested on: NCI/ADR-RES ovarian
# [6] = tested on: A498 renal
# [7] = tested on: CAKI-1 renal
# [8] = tested on: SNB-19 CNS
# [9] = tested on: HCC-2998 colon
# [10] = tested on: HT29 colon
# [11] = tested on: SF-295 CNS
# [12] = tested on: UACC-62 melanoma
# [13] = tested on: SW-620 colon
# [14] = tested on: K-562 leukemia
# [15] = tested on: HOP-92 NSCLC
# [16] = tested on: MALME-3M melanoma
# [17] = tested on: SF-268 CNS
# [18] = tested on: NCI-H23 lung
# [19] = tested on: TK-10 renal
# [20] = tested on: MDA-MB-231 breast
# [21] = tested on: U251 CNS
# [22] = tested on: UO-31 renal
# [23] = tested on: OVCAR-8 ovarian
# [24] = tested on: COLO 205 colon
# [25] = tested on: HS 578T breast
# [26] = tested on: SK-MEL-5 melanoma
# [27] = tested on: OVCAR-4 ovarian
# [28] = tested on: NCI-H522 lung
# [29] = tested on: SK-MEL-2 melanoma
# [30] = tested on: CCRF-CEM leukemia
# [31] = tested on: HCT-15 colon
# [32] = tested on: OVCAR-5 ovarian
# [33] = tested on: SNB-75 CNS
# [34] = tested on: T-47D breast
# [35] = tested on: SK-OV-3 ovarian
# [36] = tested on: HOP-62 NSCLC
# [37] = tested on: EKVX NSCLC
# [38] = tested on: ACHN renal
# [39] = tested on: IGROV1 ovarian
# [40] = tested on: NCI-H226 lung
# [41] = tested on: OVCAR-3 ovarian
# [42] = tested on: MDA-MB-435
# [43] = tested on: MCF7 breast
# [44] = tested on: RXF 393 renal
# [45] = tested on: 786-0 renal
# [46] = tested on: PC-3 prostate
# [47] = tested on: HL-60(TB) leukemia
# [48] = tested on: KM12 colon
# [49] = tested on: SN12C renal
# [50] = tested on: MOLT-4 leukemia
# [51] = tested on: BT-549 breast
# [52] = tested on: LOX IMVI melanoma
# [53] = tested on: A549 NSCLC
# [54] = tested on: DU-145 prostate
# [55] = tested on: M14 melanoma
structure (smiles),measurement,setting,value
COc1ccc(CC(C)=C(c2ccc(OCCN3CCCCCC3)cc2)c2ccc(OCCN3CCCCCC3)cc2)cc1,GI50,[1],91.1 nM
same,TGI,[1],166 nM
same,GI50,[2],108 nM
same,TGI,[2],262 nM
same,GI50,[3],97.8 nM
same,TGI,[3],194 nM
same,GI50,[4],100 nM
same,TGI,[4],186 nM
same,GI50,[5],655 nM
same,TGI,[5],1410 nM
same,GI50,[6],513 nM
same,TGI,[6],1200 nM
same,GI50,[7],345 nM
same,TGI,[7],930 nM
same,GI50,[8],232 nM
same,TGI,[8],817 nM
same,GI50,[9],88.1 nM
same,TGI,[9],182 nM
same,GI50,[10],84.3 nM
same,TGI,[10],181 nM
same,GI50,[11],300 nM
same,TGI,[11],861 nM
same,GI50,[12],98.7 nM
same,TGI,[12],199 nM
same,GI50,[13],89 nM
same,TGI,[13],179 nM
same,GI50,[14],98.7 nM
same,TGI,[14],220 nM
same,GI50,[15],254 nM
same,TGI,[15],986 nM
same,GI50,[16],90 nM
same,TGI,[16],171 nM
same,GI50,[17],474 nM
same,TGI,[17],1150 nM
same,GI50,[18],709 nM
same,TGI,[18],1410 nM
same,GI50,[19],729 nM
same,TGI,[19],1470 nM
same,GI50,[20],176 nM
same,TGI,[20],487 nM
same,GI50,[21],107 nM
same,TGI,[21],259 nM
same,GI50,[22],308 nM
same,TGI,[22],929 nM
same,GI50,[23],607 nM
same,TGI,[23],1450 nM
same,GI50,[24],94.4 nM
same,TGI,[24],182 nM
same,GI50,[25],175 nM
same,TGI,[25],757 nM
same,GI50,[26],119 nM
same,TGI,[26],312 nM
same,GI50,[27],432 nM
same,TGI,[27],1110 nM
same,GI50,[28],443 nM
same,TGI,[28],1200 nM
same,GI50,[29],756 nM
same,TGI,[29],1500 nM
same,GI50,[30],158 nM
same,TGI,[30],609 nM
same,GI50,[31],121 nM
same,TGI,[31],382 nM
same,GI50,[32],631 nM
same,TGI,[32],1260 nM
same,GI50,[33],487 nM
same,TGI,[33],1160 nM
same,GI50,[34],219 nM
same,TGI,[34],955 nM
same,GI50,[35],612 nM
same,TGI,[35],1240 nM
same,GI50,[36],626 nM
same,TGI,[36],1280 nM
same,GI50,[37],615 nM
same,TGI,[37],1300 nM
same,GI50,[38],135 nM
same,TGI,[38],374 nM
same,GI50,[39],370 nM
same,TGI,[39],1020 nM
same,GI50,[40],531 nM
same,TGI,[40],1420 nM
same,GI50,[41],113 nM
same,TGI,[41],239 nM
same,GI50,[42],89.1 nM
same,TGI,[42],166 nM
same,GI50,[43],87.2 nM
same,TGI,[43],187 nM
same,GI50,[44],348 nM
same,TGI,[44],1050 nM
same,GI50,[45],83.8 nM
same,TGI,[45],159 nM
same,GI50,[46],265 nM
same,TGI,[46],860 nM
same,GI50,[47],99 nM
same,TGI,[47],229 nM
same,GI50,[48],240 nM
same,TGI,[48],823 nM
same,GI50,[49],657 nM
same,TGI,[49],1350 nM
same,GI50,[50],133 nM
same,TGI,[50],406 nM
same,GI50,[51],681 nM
same,TGI,[51],1370 nM
same,GI50,[52],87.5 nM
same,TGI,[52],161 nM
same,GI50,[53],343 nM
same,TGI,[53],1020 nM
same,GI50,[54],275 nM
same,TGI,[54],879 nM
same,GI50,[55],88.6 nM
same,TGI,[55],171 nM
